Measured values as given in ChEMBL document CHEMBL1201862, “PubChem BioAssay data set” (2004).
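Compound exposure: 48 hours, 5 concentrations, 96-well plates. Here, GI50 denotes the concentration required for 50% inhibition of growth.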 Active and inactive are the calls of the source. Cut-off read from the data, not from the text of the source: active = GI50 up to about 1.1 µM and inactive = higher.

How the values were obtained:
Assay in all cases: NCI-60 cell line screen, 48 h
HCT-15 = system: HCT-15
786-0 = system: 786-0
HCC 2998 = system: HCC 2998
HOP-62 = system: HOP-62
PC-3 = system: PC-3
MDA-MB-435 = system: MDA-MB-435
RPMI-8226 = system: RPMI-8226
EKVX = system: EKVX
Malme-3M = system: Malme-3M
IGROV-1 = system: IGROV-1
SK-MEL-5 = system: SK-MEL-5
OVCAR-3 = system: OVCAR-3
CAKI-1 = system: CAKI-1
SN12C = system: SN12C
MDA-N = system: MDA-N
SF-295 = system: SF-295
Hs-578T = system: Hs-578T
ACHN = system: ACHN
KM12 = system: KM12
NCI-H460 = system: NCI-H460
OVCAR-5 = system: OVCAR-5
SF-268 = system: SF-268
SNB-19 = system: SNB-19
LOX IMVI = system: LOX IMVI
SW-620 = system: SW-620
NCI/ADR-RES = system: NCI/ADR-RES
NCI-H23 = system: NCI-H23
SK-OV-3 = system: SK-OV-3
NCI-H226 = system: NCI-H226
HCT-116 = system: HCT-116
MDA-MB-231 = system: MDA-MB-231
UO-31 = system: UO-31
BT-549 = system: BT-549
U-251 = system: U-251
OVCAR-8 = system: OVCAR-8
A498 = system: A498
MCF7 = system: MCF7
TK-10 = system: TK-10
M14 = system: M14
NCI-H522 = system: NCI-H522
COLO 205 = system: COLO 205
SK-MEL-2 = system: SK-MEL-2
SR = system: SR
HT-29 = system: HT-29
SK-MEL-28 = system: SK-MEL-28
MOLT-4 = system: MOLT-4
K562 = system: K562
CCRF-CEM = system: CCRF-CEM
SNB-75 = system: SNB-75
UACC-257 = system: UACC-257
HL-60 = system: HL-60
OVCAR-4 = system: OVCAR-4
A549 = system: A549
UACC-62 = system: UACC-62
HOP-92 = system: HOP-92
DU-145 = system: DU-145
T47D = system: T47D
RXF 393 = system: RXF 393

Q: What does the source list for O=C(Nc1ccc(Cl)cc1)c1cc(S(=O)(=O)Nc2n[nH]c(=O)[nH]2)c(SSc2cc(Cl)c(C(=O)Nc3ccc(Cl)cc3)cc2S(=O)(=O)Nc2n[nH]c(=O)[nH]2)cc1Cl?
A: GI50 (HCT-15): > 100 µM; GI50 (786-0): > 100 µM (inactive); GI50 (HCC 2998): > 100 µM (inactive); GI50 (HOP-62): > 100 µM (inactive); GI50 (PC-3): > 100 µM (inactive); GI50 (MDA-MB-435): > 100 µM (inactive); GI50 (RPMI-8226): > 100 µM (inactive); GI50 (EKVX): > 100 µM (inactive); GI50 (Malme-3M): > 100 µM (inactive); GI50 (IGROV-1): > 100 µM (inactive); GI50 (SK-MEL-5): > 100 µM (inactive); GI50 (OVCAR-3): > 100 µM (inactive); GI50 (CAKI-1): > 100 µM (inactive); GI50 (SN12C): > 100 µM (inactive); GI50 (MDA-N): > 100 µM (inactive); GI50 (SF-295): > 100 µM (inactive); GI50 (Hs-578T): > 100 µM (inactive); GI50 (ACHN): > 100 µM (inactive); GI50 (KM12): > 100 µM (inactive); GI50 (NCI-H460): > 100 µM (inactive); GI50 (OVCAR-5): > 100 µM (inactive); GI50 (SF-268): > 100 µM (inactive); GI50 (SNB-19): > 100 µM (inactive); GI50 (LOX IMVI): > 100 µM (inactive); GI50 (SW-620): > 100 µM (inactive); GI50 (NCI/ADR-RES): > 100 µM (inactive); GI50 (NCI-H23): > 100 µM (inactive); GI50 (SK-OV-3): > 100 µM (inactive); GI50 (NCI-H226): > 100 µM (inactive); GI50 (HCT-116): > 100 µM (inactive); GI50 (MDA-MB-231): > 100 µM (inactive); GI50 (UO-31): > 100 µM (inactive); GI50 (BT-549): > 100 µM (inactive); GI50 (U-251): > 100 µM (inactive); GI50 (OVCAR-8): > 100 µM (inactive); GI50 (A498): > 100 µM (inactive); GI50 (MCF7): > 100 µM (inactive); GI50 (TK-10): > 100 µM (inactive); GI50 (M14): > 100 µM (inactive); GI50 (NCI-H522): > 100 µM (inactive); GI50 (COLO 205): > 100 µM (inactive); GI50 (SK-MEL-2): > 100 µM (inactive); GI50 (SR): > 100 µM (inactive); GI50 (HT-29): > 100 µM (inactive); GI50 (SK-MEL-28): > 100 µM (inactive); GI50 (MOLT-4): > 100 µM (inactive); GI50 (K562): > 100 µM (inactive); GI50 (CCRF-CEM): > 100 µM (inactive); GI50 (SNB-75): 88.1 µM (inactive); GI50 (UACC-257): > 100 µM (inactive); GI50 (HL-60): > 100 µM (inactive); GI50 (OVCAR-4): > 100 µM (inactive); GI50 (A549): > 100 µM (inactive); GI50 (UACC-62): > 100 µM (inactive); GI50 (HOP-92): > 100 µM (inactive)

Q: For CCC1(c2ccc(OC)c(OC)c2)CCN2C(=O)C(O)CC21 (stereo unspecified), which GI50 (HCT-15) is on record?
A: Its GI50 is over 100 µM.

Q: And the GI50 (786-0)?
A: Its GI50 is > 100 µM (inactive).

Q: And the GI50 (DU-145)?
A: Its GI50 is > 100 µM (inactive).

Q: And the GI50 (HCC 2998)?
A: Its GI50 is > 100 µM (inactive).

Q: And the GI50 (HOP-62)?
A: The GI50 was > 100 µM (inactive).

Q: And the GI50 (PC-3)?
A: The GI50 was > 100 µM (inactive).

Q: And the GI50 (MDA-MB-435)?
A: Its GI50 is > 100 µM (inactive).

Q: And the GI50 (EKVX)?
A: Its GI50 is > 100 µM (inactive).

Q: What about the GI50 (IGROV-1) of the same molecule?
A: Its GI50 is > 100 µM (inactive).

Q: What about the GI50 (T47D) of the same molecule?
A: The GI50 was > 100 µM (inactive).

Q: And the GI50 (SK-MEL-5)?
A: Its GI50 is > 100 µM (inactive).

Q: What about the GI50 (OVCAR-3) of the same molecule?
A: The GI50 was > 100 µM (inactive).

Q: And the GI50 (CAKI-1)?
A: Its GI50 is > 100 µM (inactive).

Q: What about the GI50 (SN12C) of the same molecule?
A: The GI50 was > 100 µM (inactive).

Q: What about the GI50 (MDA-N) of the same molecule?
A: Its GI50 is > 100 µM (inactive).

Q: And the GI50 (SF-295)?
A: Its GI50 is > 100 µM (inactive).

Q: And the GI50 (ACHN)?
A: The GI50 was > 100 µM (inactive).

Q: What about the GI50 (KM12) of the same molecule?
A: The GI50 was > 100 µM (inactive).

Q: And the GI50 (NCI-H460)?
A: Its GI50 is > 100 µM (inactive).

Q: And the GI50 (OVCAR-5)?
A: The GI50 was > 100 µM (inactive).

Q: What about the GI50 (SF-268) of the same molecule?
A: The GI50 was > 100 µM (inactive).

Q: And the GI50 (SNB-19)?
A: The GI50 was > 100 µM (inactive).

Q: What about the GI50 (LOX IMVI) of the same molecule?
A: Its GI50 is > 100 µM (inactive).

Q: And the GI50 (SW-620)?
A: Its GI50 is > 100 µM (inactive).

Q: What about the GI50 (NCI/ADR-RES) of the same molecule?
A: The GI50 was > 100 µM (inactive).

Q: What about the GI50 (NCI-H23) of the same molecule?
A: The GI50 was > 100 µM (inactive).

Q: And the GI50 (SK-OV-3)?
A: The GI50 was > 100 µM (inactive).

Q: And the GI50 (NCI-H226)?
A: Its GI50 is > 100 µM (inactive).

Q: What about the GI50 (RXF 393) of the same molecule?
A: The GI50 was > 100 µM (inactive).

Q: And the GI50 (HCT-116)?
A: Its GI50 is > 100 µM (inactive).

Q: What about the GI50 (MDA-MB-231) of the same molecule?
A: Its GI50 is > 100 µM (inactive).

Q: And the GI50 (UO-31)?
A: Its GI50 is > 100 µM (inactive).

Q: What about the GI50 (BT-549) of the same molecule?
A: The GI50 was > 100 µM (inactive).

Q: What about the GI50 (U-251) of the same molecule?
A: Its GI50 is > 100 µM (inactive).

Q: What about the GI50 (MCF7) of the same molecule?
A: Its GI50 is > 100 µM (inactive).

Q: What about the GI50 (TK-10) of the same molecule?
A: The GI50 was > 100 µM (inactive).

Q: And the GI50 (M14)?
A: The GI50 was > 100 µM (inactive).

Q: What about the GI50 (NCI-H522) of the same molecule?
A: Its GI50 is > 100 µM (inactive).

Q: What about the GI50 (COLO 205) of the same molecule?
A: Its GI50 is > 100 µM (inactive).

Q: And the GI50 (SK-MEL-2)?
A: The GI50 was > 100 µM (inactive).

Q: And the GI50 (SR)?
A: Its GI50 is > 100 µM (inactive).

Q: What about the GI50 (HT-29) of the same molecule?
A: The GI50 was > 100 µM (inactive).

Q: And the GI50 (SK-MEL-28)?
A: The GI50 was > 100 µM (inactive).

Q: What about the GI50 (MOLT-4) of the same molecule?
A: The GI50 was > 100 µM (inactive).

Q: And the GI50 (K562)?
A: The GI50 was > 100 µM (inactive).

Q: And the GI50 (CCRF-CEM)?
A: Its GI50 is > 100 µM (inactive).

Q: And the GI50 (SNB-75)?
A: The GI50 was > 100 µM (inactive).

Q: And the GI50 (UACC-257)?
A: The GI50 was > 100 µM (inactive).

Q: What about the GI50 (OVCAR-4) of the same molecule?
A: The GI50 was > 100 µM (inactive).

Q: What about the GI50 (A549) of the same molecule?
A: The GI50 was > 100 µM (inactive).

Q: What about the GI50 (UACC-62) of the same molecule?
A: Its GI50 is > 100 µM (inactive).
